According to patent publication US12077503B2, “Substituted cyclic amides and their use as herbicides” (FMC CORPORATION, priority 2015, dated 2024):

What was measured:
Assay type in all cases: in vivo
[1] = tested on: water seeded rice seedlings (Rice, W. S. Jap, Oryza sativa cv. ‘Japonica—M202’); test: Test F flooded paddy test; set-up: key: 0 = no effect, 100 = complete control; conditions: Flood
[2] = tested on: barnyardgrass (Echinochloa crus-galli); test: Test F flooded paddy test; set-up: key: 0 = no effect, 100 = complete control; conditions: Flood
[3] = tested on: bearded sprangletop (Leptochloa fascicularis); test: Test F flooded paddy test; set-up: key: 0 = no effect, 100 = complete control; conditions: Flood
[4] = tested on: transplanted rice seedlings (Oryza sativa cv. ‘Japonica—M202’); test: Test F flooded paddy test; set-up: key: 0 = no effect, 100 = complete control; conditions: Flood
[5] = tested on: Monochoria (Monochoria vaginalis); test: Test F flooded paddy test; set-up: key: 0 = no effect, 100 = complete control; conditions: Flood
[6] = tested on: rice flatsedge (Cyperus iria); test: Test F flooded paddy test; set-up: key: 0 = no effect, 100 = complete control; conditions: Flood
[7] = tested on: late watergrass (Echinochloa oryzicola); test: Test F flooded paddy test; set-up: key: 0 = no effect, 100 = complete control; conditions: Flood
[8] = tested on: sedge, umbrella (small-flower umbrella sedge, Cyperus difformis); test: Test F flooded paddy test; set-up: key: 0 = no effect, 100 = complete control; conditions: Flood
[9] = tested on: barnyardgrass (Echinochloa crus-galli); test: Test C flooded paddy test; conditions: Flood; for Plant response rating (scale of 0 to 100), Barnyardgrass: 0 is no effect, 100 is complete control
Outline: (§1)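 Test compounds were dosed straight into the flood water of pots holding 2-leaf-stage plants, with water kept 3 cm above the soil. Greenhouse plants were scored visually against controls after 13 to 15 d, from 0 (no effect) to 100 (complete control).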

rice (Oryza sativa) = test: Test C flooded paddy test; conditions: Flood; for Plant response rating (scale of 0 to 100), Rice: 0 is no effect, 100 is complete control
Outline: as §1

[10] = tested on: sedge, umbrella (small-flower umbrella sedge, Cyperus difformis); test: Test C flooded paddy test; conditions: Flood; for Plant response rating (scale of 0 to 100), Sedge, Umbrella: 0 is no effect, 100 is complete control
Outline: as §1

[11] = 16 g ai/ha, scale 0 to 100 (0 no effect, 100 complete control), 13 to 15 d

## Cc1ccc(C2CN(C)C(=O)C2C(=O)Nc2ccccc2F)cc1F (centres unmarked) [Compound 465]
[1]; 32 g ai/ha
  Plant response rating: Rice, Water Seeded: 0
[1]; 64 g ai/ha
  Plant response rating: Rice, Water Seed.: 0
[1]; 125 g ai/ha
  Plant response rating: Rice, Water Seed.: 35
[1]; 250 g ai/ha
  Plant response rating: Rice, Water Seeded: 60
[2]; 32 g ai/ha
  Plant response rating: Barnyardgrass: 100
[2]; 64 g ai/ha
  Plant response rating: Barnyardgrass: 100
[2]; 125 g ai/ha
  Plant response rating: Barnyardgrass: 100
[2]; 250 g ai/ha
  Plant response rating: Barnyardgrass: 100
[3]; 32 g ai/ha
  Plant response rating: Sprangletop, Brdd.: 85
[3]; 64 g ai/ha
  Plant response rating: Sprangletop, Brdd.: 85
[3]; 125 g ai/ha
  Plant response rating: Sprangletop, Brdd.: 95
[3]; 250 g ai/ha
  Plant response rating: Sprangletop, Brdd.: 95
[4]; 32 g ai/ha
  Plant response rating: Rice, Transplanted: 0
[4]; 64 g ai/ha
  Plant response rating: Rice, Transplanted: 0
[4]; 125 g ai/ha
  Plant response rating: Rice, Transplanted: 0
[4]; 250 g ai/ha
  Plant response rating: Rice, Transplanted: 15
[5]; 32 g ai/ha
  Plant response rating: Monochoria: 50
[5]; 64 g ai/ha
  Plant response rating: Monochoria: 75
[5]; 125 g ai/ha
  Plant response rating: Monochoria: 100
[5]; 250 g ai/ha
  Plant response rating: Monochoria: 100
[6]; 32 g ai/ha
  Plant response rating: Flatsedge, Rice: 0
[6]; 64 g ai/ha
  Plant response rating: Flatsedge, Rice: 0
[6]; 125 g ai/ha
  Plant response rating: Flatsedge, Rice: 0
[6]; 250 g ai/ha
  Plant response rating: Flatsedge, Rice: 0
[7]; 32 g ai/ha
  Plant response rating: Watergrass, Late: 85
[7]; 64 g ai/ha
  Plant response rating: Watergrass, Late: 00
[7]; 125 g ai/ha
  Plant response rating: Watergrass, Late: 100
[7]; 250 g ai/ha
  Plant response rating: Watergrass, Late: 100
[8]; 32 g ai/ha
  Plant response rating: Sedge, Umbrella: 0
[8]; 64 g ai/ha
  Plant response rating: Sedge, Umbrella: 0
[8]; 125 g ai/ha
  Plant response rating: Sedge, Umbrella: 0
[8]; 250 g ai/ha
  Plant response rating: Sedge, Umbrella: 0
[9]; [11]
  Plant response rating, Barnyardgrass: 0
[9]; 31 g ai/ha
  Plant response rating (scale of 0 to 100), Barnyardgrass: 25
[9]; 62 g ai/ha
  Plant response rating (scale of 0 to 100), Barnyardgrass: 45
[9]; 125 g ai/ha
  Plant response rating (scale of 0 to 100), Barnyardgrass: 70
Rice (Oryza sativa); [11]
  Plant response rating, Rice: 0
Rice (Oryza sativa); 31 g ai/ha
  Plant response rating (scale of 0 to 100), Rice: 0
Rice (Oryza sativa); 62 g ai/ha
  Plant response rating (scale of 0 to 100), Rice: 0
Rice (Oryza sativa); 125 g ai/ha
  Plant response rating (scale of 0 to 100), Rice: 0
[10]; [11]
  Plant response rating, Sedge, Umbrella: 0
[10]; 31 g ai/ha
  Plant response rating (scale of 0 to 100), Sedge, Umbrella: 0
[10]; 62 g ai/ha
  Plant response rating (scale of 0 to 100), Sedge, Umbrella: 0
[10]; 125 g ai/ha
  Plant response rating (scale of 0 to 100), Sedge, Umbrella: 0
